Results from ChEMBL document CHEMBL1201862, “PubChem BioAssay data set” (2004).
Where “and” joins values, the source holds several entries; their conditions need not be identical. Identical values can stand only once.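 Cultured in 96-well plates, cells were exposed to test compound for 48 hours across five concentrations. The concentration for 50% growth inhibition is given as GI50.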 Calls of active or inactive are those of the source. No stated cut-off is given here; in the data, active = GI50 up to about 1.1 µM and inactive = higher.

Assays:
Test in all cases: NCI anticancer screen, dose series, 48 h
786-0 = system: 786-0
BT-549 = system: BT-549
CAKI-1 = system: CAKI-1
CCRF-CEM = system: CCRF-CEM
DU-145 = system: DU-145
Hs-578T = system: Hs-578T
LOX IMVI = system: LOX IMVI
MDA-MB-231 = system: MDA-MB-231
OVCAR-5 = system: OVCAR-5
RPMI-8226 = system: RPMI-8226
SF-268 = system: SF-268
SF-295 = system: SF-295
SF-539 = system: SF-539
SN12C = system: SN12C
SW-620 = system: SW-620
T47D = system: T47D
TK-10 = system: TK-10
U-251 = system: U-251
K562 = system: K562

Measured: GI50

CCOC1Oc2ccccc2-c2nc(N)ncc21 (configuration not stated)
inactive: 786-0 58.7 µM | BT-549 31.3 µM | CAKI-1 30.6 µM | CCRF-CEM 36.8 µM | DU-145 68.4 µM | Hs-578T 29.2 µM | LOX IMVI 27 µM | MDA-MB-231 99.3 µM | OVCAR-5 > 100 µM | RPMI-8226 40 µM | SF-268 44.1 µM | SF-295 34.1 µM | SF-539 33.4 µM | SN12C 77.1 µM | SW-620 46.3 µM | T47D 51.3 µM | TK-10 33.2 µM | U-251 65.6 µM

Cc1ccc(/C=C2/N/C(=N\N=C/C(O)C(O)C(O)C(O)CO)NC2=O)cc1 (configuration not stated)
inactive: 786-0 > 100 µM | BT-549 > 100 µM | CAKI-1 > 100 µM | CCRF-CEM 95.3 µM | DU-145 > 100 µM | Hs-578T > 100 µM | LOX IMVI > 100 µM | MDA-MB-231 > 100 µM | OVCAR-5 > 100 µM | RPMI-8226 > 100 µM | SF-268 > 100 µM | SF-295 > 100 µM | SF-539 > 100 µM | SN12C > 100 µM | SW-620 > 100 µM | T47D > 100 µM and 99.1 µM | TK-10 > 100 µM | U-251 > 100 µM

CN(C)NC(=S)Nc1ccccc1Br
inactive: 786-0 > 100 µM | BT-549 > 100 µM | CAKI-1 > 100 µM | CCRF-CEM > 100 µM | DU-145 > 100 µM | Hs-578T > 100 µM | K562 > 100 µM | LOX IMVI > 100 µM | MDA-MB-231 > 100 µM | OVCAR-5 > 100 µM | RPMI-8226 > 100 µM | SF-295 > 100 µM | SF-539 > 100 µM | SW-620 > 100 µM | T47D > 100 µM | TK-10 > 100 µM | U-251 > 100 µM

FC(F)(Sc1ncc[nH]1)c1nc2ccccc2o1
inactive: 786-0 > 100 µM | BT-549 > 100 µM | CAKI-1 > 100 µM | CCRF-CEM > 100 µM | DU-145 > 100 µM | Hs-578T 62.7 µM | K562 > 100 µM | MDA-MB-231 > 100 µM | OVCAR-5 > 100 µM | RPMI-8226 > 100 µM | SF-268 > 100 µM | SF-295 > 100 µM | SF-539 > 100 µM | SN12C > 100 µM | SW-620 > 100 µM | T47D > 100 µM | TK-10 > 100 µM | U-251 > 100 µM

CC(C(=O)c1ccncc1)c1ccccn1 (configuration not stated)
inactive: 786-0 > 100 µM | BT-549 > 100 µM | CAKI-1 > 100 µM | CCRF-CEM > 100 µM | DU-145 > 100 µM | Hs-578T > 100 µM | K562 > 100 µM | LOX IMVI > 100 µM | MDA-MB-231 > 100 µM | OVCAR-5 > 100 µM | RPMI-8226 > 100 µM | SF-268 > 100 µM | SF-295 > 100 µM | SN12C > 100 µM | SW-620 > 100 µM | T47D > 100 µM | TK-10 > 100 µM | U-251 > 100 µM

O=C(O)C1[C@@H](C(=O)O)C1(Br)CBr (some centres not stated)
inactive: 786-0 > 100 µM | BT-549 > 100 µM | CAKI-1 > 100 µM | DU-145 > 100 µM | Hs-578T > 100 µM | K562 > 100 µM | LOX IMVI > 100 µM | MDA-MB-231 > 100 µM | OVCAR-5 > 100 µM | RPMI-8226 > 100 µM | SF-268 > 100 µM | SF-295 > 100 µM | SF-539 > 100 µM | SN12C > 100 µM | SW-620 > 100 µM | T47D > 100 µM | TK-10 > 100 µM | U-251 > 100 µM

NNC(=O)CSc1nnc(CCCCCCCCc2nnc(SCC(=O)NN)o2)o1
inactive: 786-0 > 100 µM | BT-549 > 100 µM | CAKI-1 > 100 µM | CCRF-CEM > 100 µM | DU-145 > 100 µM | Hs-578T > 100 µM | K562 > 100 µM | LOX IMVI > 100 µM | MDA-MB-231 > 100 µM | OVCAR-5 > 100 µM | RPMI-8226 > 100 µM | SF-268 > 100 µM | SF-295 > 100 µM | SN12C > 100 µM | SW-620 > 100 µM | T47D > 100 µM | TK-10 > 100 µM | U-251 > 100 µM

Cc1ccc2c(=O)c(C(=O)NNC(=S)NC3CCCCC3)c[nH]c2n1
inactive: 786-0 > 100 µM | BT-549 71.3 µM | CAKI-1 59.2 µM | CCRF-CEM 99.5 µM | DU-145 > 100 µM | Hs-578T 64.1 µM | K562 30.6 µM | LOX IMVI 51.3 µM | MDA-MB-231 52.7 µM | OVCAR-5 > 100 µM | RPMI-8226 42.8 µM | SF-268 96.8 µM | SF-295 56.8 µM | SN12C 78.7 µM | SW-620 40.6 µM | T47D 46.9 µM | TK-10 > 100 µM | U-251 65.9 µM

O=C(c1ccccc1)n1[nH]c(=O)n(-c2ccc(Cl)cc2)c1=O
inactive: 786-0 > 100 µM | BT-549 > 100 µM | CAKI-1 > 100 µM | CCRF-CEM > 100 µM | DU-145 > 100 µM | Hs-578T > 100 µM | K562 > 100 µM | LOX IMVI > 100 µM | MDA-MB-231 > 100 µM | OVCAR-5 > 100 µM | RPMI-8226 > 100 µM | SF-268 > 100 µM | SF-295 > 100 µM | SN12C > 100 µM | SW-620 > 100 µM | T47D > 100 µM | TK-10 > 100 µM | U-251 > 100 µM

O=C1NC(c2c(Cl)cccc2Cl)Nc2ccccc21 (configuration not stated)
inactive: 786-0 54.3 µM | BT-549 60 µM | CAKI-1 18.5 µM | CCRF-CEM > 10 µM | DU-145 29.2 µM | Hs-578T 19.6 µM | LOX IMVI 47.2 µM | MDA-MB-231 30.5 µM | OVCAR-5 94.4 µM | RPMI-8226 50.5 µM | SF-268 54.5 µM | SF-295 47.3 µM | SF-539 47.1 µM | SN12C 65.6 µM | SW-620 30.5 µM | T47D > 100 µM | TK-10 > 100 µM | U-251 36.3 µM

COc1cc2c(cc1OC)C1CN3CCCC3C(O)C1c1cc(OC)c(OC)cc1-2 (configuration not stated)
inactive: 786-0 > 100 µM | BT-549 > 100 µM | CAKI-1 > 100 µM | CCRF-CEM 69.3 µM | DU-145 > 100 µM | Hs-578T > 100 µM | K562 > 100 µM | LOX IMVI > 100 µM | MDA-MB-231 > 100 µM | OVCAR-5 > 100 µM | RPMI-8226 > 100 µM | SF-268 > 100 µM | SF-295 > 100 µM | SN12C > 100 µM | SW-620 > 100 µM | T47D 15.3 µM | TK-10 > 100 µM | U-251 > 100 µM
